The text below walks through data of patent US20070218555A1, “Anti-Microbial Activity Of Biologically Stabilized Silver Nano Particles” (priority 2004, published 2007).

The subject of data set [1] is Pseudomonas aeruginosa MDR strain. Description: Interaction of drugs with silver nano particles, checkerboard macrodilution (FICI). Format: cell-based. Conditions: drug in combination with biologically stabilized silver nano particles. On the procedure:
Interaction of drugs with biologically stabilized silver nano particles. A two-dimensional checkerboard macrodilution technique was used to characterize interactions between biologically stabilized silver nano particles and drug (viz. Gentamicin, Penicillin, Cefotaxime, Ceptazidime, Kanamycin, Vancomycin). six experiments were performed for Pseudomonas aeruginosa MDR strain described above. Inoculum was prepared similarly to those for susceptibility testing. Individual drug with biologically stabilized silver nano particles were diluted in serial twofold dilutions, and concentrations ranged from four fold below to four folds above the MIC. The highest dilution of the drug combination with biologically stabilized silver nano particles that inhibits the visible growth of the test organism was regarded as the fractional inhibitory concentration (FIC). The fractional inhibitory concentration (FIC) index (FICI) was used to define the interaction between the two drugs. The FICI is the sum of the FICs of each of the drugs. The FIC was calculated as follows: MIC of the drug tested in combination/MIC of the drug tested alone. The interaction was defined as synergistic if the FICI was […], as additive if the FICI was >0.5 to 1.0, as indifferent if the FICI was >1.0 to 2.0, and as antagonistic if the FICI was >2.0.

In data set [2] the test system is human dermal fibroblast cells. The following applies: cited from earlier work.

As to `CC(C)(O/N=C(\C(=O)N[C@@H]1C(=O)N2C(C(=O)[O-])=C(C[n+]3ccccc3)CS[C@H]12)c1csc(N)n1)C(=O)O` [ceptazidime], the “interaction by mean FICI” value in data set [1] was “partially synergistic”.

With `O=[N+]([O-])[O-].[Ag+]` [silver nitrate], the “low concentration of silver ions showing inhibitory effect” value in data set [2] is 8.2 μM/l.
